Common to all, as to format: functional
The subject of assay [1] is Tetranychus urticae. Description: Insecticidal activity against fenpropathrin-resistant female Tetranychus urticae FRT-53 (two-spotted spider mite) in kidney bean assessed as mortality in 3 cm disks measured after 24 hr exposure by vapour-phase mortality bioassay.
The subject of assay [2] is Tetranychus urticae. Kind of assay: Insecticidal activity against chlorfenapyr-resistant female Tetranychus urticae CRT-53 (two-spotted spider mite) in kidney bean assessed as mortality in 3 cm disks measured after 24 hr exposure by vapour-phase mortality bioassay.
Assay [3] concerns Tetranychus urticae. Kind of assay: Insecticidal activity against pyridaben-resistant female Tetranychus urticae PRT-53 (two-spotted spider mite) in kidney bean assessed as mortality in 3 cm disks measured after 24 hr exposure by vapour-phase mortality bioassay.
For assay [4], the system named is Tetranychus urticae. Description: Insecticidal activity against abamectin-resistant female Tetranychus urticae ART-53 (two-spotted spider mite) in kidney bean assessed as mortality in 3 cm disks measured after 24 hr exposure by vapour-phase mortality bioassay.
Assay [5] concerns Tetranychus urticae. Description: Insecticidal activity against acaricide-susceptible female Tetranychus urticae KST (two-spotted spider mite) in kidney bean assessed as mortality in 3 cm disks measured after 24 hr exposure by vapour-phase mortality bioassay.

With `CC1CCC(C(C)C)C(O)C1` (centres undefined) [MENTHOL], the LC50 came out at 12.8 microg/cm3 in assay [1]; 13 microg/cm3 in assay [2]; 12.9 microg/cm3 in assay [3]; 13.7 microg/cm3 in assay [4]; 12.9 microg/cm3 in assay [5].
With `C=CC(=C)CCC=C(C)C` [MYRCENE], the LC50 in assay [1] was determined as 369.3 microg/cm3; in assay [2], 370.6 microg/cm3; in assay [3], 377.4 microg/cm3; in assay [4], 384.2 microg/cm3; in assay [5] it was 349.8 microg/cm3.
Consider `C=C1CC[C@H]2O[C@]2(C)CC[C@@H]2[C@@H]1CC2(C)C` [(-)-CARYOPHYLLENE OXIDE], for which the LC50 in assay [5] is reported as more than 500 microg/cm3.
For `CC(=O)OCCC(C)CCC=C(C)C` (centres undefined) [CITRONELLYL ACETATE], the LC50 is 16.5 microg/cm3 in assay [1]; 16.7 microg/cm3 in assay [2]; 17.4 microg/cm3 in assay [3]; 12.8 microg/cm3 in assay [4]; 16.8 microg/cm3 in assay [5].
Consider `C=C(C)[C@@H]1CC[C@@H](C)C[C@H]1O` [ISOPULEGOL], for which the LC50 came out at 30.1 microg/cm3 in assay [1]; 30.7 microg/cm3 in assay [2]; 27.7 microg/cm3 in assay [3]; 29 microg/cm3 in assay [4]; 30.3 microg/cm3 in assay [5].
Take `C=C1CC[C@@H]2[C@@H]([C@@H]3[C@H](C)CC[C@@H]13)C2(C)C` [(+)-AROMADENDRENE]: the LC50 in assay [5] is more than 500 microg/cm3.
Consider `C=CC(C)(O)CCC=C(C)C` (centres undefined) [LINALOOL], for which the LC50 was 57.3 microg/cm3 in assay [1]; 58.9 microg/cm3 in assay [2]; 55 microg/cm3 in assay [3]; 62.4 microg/cm3 in assay [4]; 54.6 microg/cm3 in assay [5].
`C=C[C@]1(C)CC[C@@H](C(C)(C)O)O1` [(E)-LINALOOL OXIDE]: the LC50 in assay [5] is listed as more than 500 microg/cm3.
Regarding `CC(C)=CCC/C(C)=C/CO` [GERANIOL], the LC50 is given as 26.8 microg/cm3 in assay [1]; 32 microg/cm3 in assay [2]; 33.2 microg/cm3 in assay [3]; 33.3 microg/cm3 in assay [4]; 32.1 microg/cm3 in assay [5].
On the same counts, the results for `CC(C)=CCCC(C)CCO` (centres undefined) [CITRONELLOL] are 21.4 microg/cm3, 26.1 microg/cm3, 25.9 microg/cm3, 26 microg/cm3 and 21.7 microg/cm3.
`CC1(C)C2CCC1(C)C(O)C2` (centres undefined) [BORNEOL]: the LC50 in assay [5] is recorded as more than 500 microg/cm3.
For `CC1=CC[C@@](O)(C(C)C)CC1`, the LC50 in assay [1] is 40.8 microg/cm3; in assay [2], 36.7 microg/cm3; in assay [3] it was 43.7 microg/cm3; in assay [4], 38.7 microg/cm3; in assay [5] it was 36.9 microg/cm3.
With `Cc1ccc(C(C)C)cc1` [P-CYMENE], the LC50 is recorded as 238.9 microg/cm3 in assay [1]; 213.5 microg/cm3 in assay [2]; 243.3 microg/cm3 in assay [3]; 265.2 microg/cm3 in assay [4]; 231.4 microg/cm3 in assay [5].
For `C=C1CC/C=C(\C)CC[C@@H]2[C@@H]1CC2(C)C` [BETA-CARYOPHYLLENE], the LC50 in assay [1] is reported as 47.7 microg/cm3; in assay [2], 49.1 microg/cm3; in assay [3] it was 44.7 microg/cm3; in assay [4], 53.4 microg/cm3; in assay [5], 47.6 microg/cm3.
On the same counts, the results for `CC(C)=CCC[C@@H](C)CC=O` [CITRONELLAL] are 34 microg/cm3, 34.8 microg/cm3, 34.9 microg/cm3, 34.9 microg/cm3 and 33.9 microg/cm3.
For `C=C(C)[C@H]1CC=C(C)CC1` [D-LIMONENE], the LC50 in assay [1] came to 284.3 microg/cm3; in assay [2] it was 333.3 microg/cm3; in assay [3], 288.5 microg/cm3; in assay [4], 277.6 microg/cm3; in assay [5], 246.7 microg/cm3.
For `CC1=CC=C(C(C)C)CC1` the same measures were 263.3 microg/cm3, 293.9 microg/cm3, 253.2 microg/cm3, 277.5 microg/cm3 and 260 microg/cm3.
For `CC1=CC[C@H](C(C)C)C=C1` the same measures were 360.6 microg/cm3, 380.1 microg/cm3, 340.7 microg/cm3, 354.7 microg/cm3 and 299.7 microg/cm3.
`C=C/C(C)=C/CC=C(C)C` [OCIMENE]: the LC50 in assay [1] was determined as 289.6 microg/cm3; in assay [2], 277.2 microg/cm3; in assay [3], 260.2 microg/cm3; in assay [4] it was 281.3 microg/cm3; in assay [5], 255 microg/cm3.
As to `CC12CCC(CC1)C(C)(C)O2` [EUCALYPTOL], the LC50 in assay [1] is recorded as 249 microg/cm3; in assay [2], 298.4 microg/cm3; in assay [3] it was 263.7 microg/cm3; in assay [4], 256.3 microg/cm3; in assay [5], 275 microg/cm3.
For `CC(=O)OC/C=C(\C)CCC=C(C)C` [GERANYL ACETATE] the same measures were 26.7 microg/cm3, 25.3 microg/cm3, 24.5 microg/cm3, 24 microg/cm3 and 24.5 microg/cm3.
For `C=CCc1ccc(O)c(OC)c1` [EUGENOL] the same measures were 28.6 microg/cm3, 25.9 microg/cm3, 31.7 microg/cm3, 27.8 microg/cm3 and 24.6 microg/cm3.

The values above are taken from ChEMBL document CHEMBL3046484, “Fumigant toxicity of lemon eucalyptus oil constituents to acaricide-susceptible and acaricide-resistant Tetranychus urticae” (2011).
